Source: patent US12012584B2 (priority 2017, dated 2024)

Legend:
[1] = after 8 hours incubation at 4° C., FIG. 22

Structure (SMILES)	trapping of the molecule by PEEK	amount of nicotine remaining in a PDMS plate [1]	amount of nicotine remaining in a PEEK plate (8 h)
CN(CCCC(=O)c1cccnc1)N=O [NNK, 4-(methylnitrosamino)-1-(3-pyridyl)-1-butanone]	not trapped by the material		
CN1CCCC1c1cccnc1 (stereo not shown) [nicotine]	not trapped by the material	about 35%	about 100%
